Reference: article PMC7252906 (Toxicology and applied pharmacology, 2019)
Where “and” joins values, the source holds several entries; their conditions need not be identical. Equal values may be shown once. Read-outs that look alike come from different tables or passages of the source.

How the values were obtained:
[1] = Incorporation of [^14C]DMAE-derived radioactivity in tissue lipids; format: in vivo, Wistar Han rats; conditions: male rats, gavage 100 mg/kg, 2 h
[2] = Radiochemical HPLC profiling of urine after [^14C]DMAE; conditions: Oral
[3] = Effect of DMAE on serum choline levels and conversion of DMAE to choline; format: in vivo, Wistar Han rats; conditions: male rats, gavage 500 mg/kg [^14C]DMAE, 1 h post-dose (remained up to 12 h); pre-dose approximately 17 ng/mL
[4] = female B6C3F1 mice, gavage 10 mg/kg, 24 h
[5] = female B6C3F1 mice, gavage 10 mg/kg, 24 h, listed as [^14C]DMAE, 10 mg/kg
[6] = female B6C3F1 mice, gavage 100 mg/kg, 24 h
[7] = female B6C3F1 mice, gavage 100 mg/kg, 24 h, listed as [^14C]DMAE, 100 mg/kg
[8] = female B6C3F1 mice, gavage 500 mg/kg, 24 h
[9] = female B6C3F1 mice, gavage 500 mg/kg, 24 h, listed as [^14C]DMAE, 500 mg/kg
[10] = female B6C3F1 mice, gavage 500 mg/kg, 72 h
[11] = male B6C3F1 mice, gavage 500 mg/kg, 24 h

CN(C)CCO [DMAE, Dimethylaminoethanol]
Total radioactivity in tissue lipids ([1]; Kidney, Neutral Lipids): 41 | Radioactivity in tissue lipids (% dose administered) ([1]; Kidney, Phospholipids): 0.771 % dose | Total radioactivity in tissue lipids ([1]; Kidney, Phospholipids): 1322 | Radioactivity in tissue lipids (% dose administered) ([1]; Liver, Phospholipids): 1.117 % dose | Total radioactivity in tissue lipids ([1]; Liver, Phospholipids): 1915 | Radioactivity in tissue lipids (% dose administered) ([1]; Lung, Fatty Acids): 0.074 % dose | Total radioactivity in tissue lipids ([1]; Lung, Fatty Acids): 127 | Radioactivity in tissue lipids (% dose administered) ([1]; Lung, Neutral Lipids): 0.276 % dose | Total radioactivity in tissue lipids ([1]; Lung, Neutral Lipids): 395 | Radioactivity in tissue lipids (% dose administered) ([1]; Lung, Phospholipids): 0.926 % dose | Total radioactivity in tissue lipids ([1]; Lung, Phospholipids): 1587 | Radioactivity in tissue lipids (% dose administered) ([1]; Skin, Fatty Acids): 0.007 % dose | Total radioactivity in tissue lipids ([1]; Skin, Fatty Acids): 12 | Radioactivity in tissue lipids (% dose administered) ([1]; Skin, Neutral Lipids): 0.003 % dose | Total radioactivity in tissue lipids ([1]; Skin, Neutral Lipids): 4 | Radioactivity in tissue lipids (% dose administered) ([1]; Skin, Phospholipids): 0.251 % dose | Total radioactivity in tissue lipids ([1]; Skin, Phospholipids): 430 | Radioactivity in tissue lipids (% dose administered) ([1]; Spleen, Fatty Acids): 0.004 % dose | Total radioactivity in tissue lipids ([1]; Spleen, Fatty Acids): 7 | Radioactivity in tissue lipids (% dose administered) ([1]; Spleen, Neutral Lipids): 0.004 % dose | Total radioactivity in tissue lipids ([1]; Spleen, Neutral Lipids): 7 | Radioactivity in tissue lipids (% dose administered) ([1]; Spleen, Phospholipids): 0.055 % dose | Total radioactivity in tissue lipids ([1]; Spleen, Phospholipids): 95 | Radioactivity in tissue lipids (% dose administered) ([1]; Testes, Fatty Acids): 0.013 % dose | Total radioactivity in tissue lipids ([1]; Testes, Fatty Acids): 23 | Radioactivity in tissue lipids (% dose administered) ([1]; Testes, Neutral Lipids): 0.008 % dose | Total radioactivity in tissue lipids ([1]; Testes, Neutral Lipids): 11 | Radioactivity in tissue lipids (% dose administered) ([1]; Testes, Phospholipids): 0.097 % dose | Total radioactivity in tissue lipids ([1]; Testes, Phospholipids): 167 | Estimated percentage of area of DMAE peak in urine chromatogram ([2]; Mouse/Female, [^14C]DMAE 10 mg/kg): 8% | Estimated percentage of area of DMAE peak in urine chromatogram ([2]; Mouse/Female, [^14C]DMAE 100 mg/kg): 82% | Estimated percentage of area of DMAE peak in urine chromatogram ([2]; Mouse/Female, [^14C]DMAE 500 mg/kg): 66% | Estimated percentage of area of DMAE peak in urine chromatogram ([2]; Mouse/Male, [^14C]DMAE 500 mg/kg): 100% | administered dose recovered in tissues (excluding GI tract) (B6C3F1 mice, oral, 24 h post-exposure, range over groups): 26–44% | % Dose Recovered, Feces [4]: 1.94 ±0.490 % dose | % Dose Recovered, Tissues and GI Tract (includes contents) [4]: 57.6 ± 3.00 % dose | % Dose Recovered, Total Recovered [4]: 99.3 ± 1.60 % dose | % Dose Recovered, VOCs [4]: 1.66 ± 0.340 % dose | percent radioactivity remaining in all tissues, excluding GI tract [4]: ~44% | % Dose Recovered, CO2 [5]: 22 % dose and 22.3 ± 3.68 % dose | % Dose Recovered, Urine [5]: 16 % dose and 15.8 ± 4.00 % dose | % Dose Recovered, Feces [6]: 1.10 ± 0.410 % dose | % Dose Recovered, Tissues and GI Tract (includes contents) [6]: 44.5 ± 1.70 % dose | % Dose Recovered, Total Recovered [6]: 81.6 ± 4.40 % dose | % Dose Recovered, VOCs [6]: 1.27 ± 0.160 % dose | percent radioactivity remaining in all tissues, excluding GI tract [6]: ~30% | % Dose Recovered, CO2 [7]: 16 % dose and 15.5 ± 0.600 % dose | % Dose Recovered, Urine [7]: 18 % dose and 17.9 ± 3.90 % dose | % Dose Recovered, Feces [8]: 0.713 ± 0.273 % dose | % Dose Recovered, Tissues and GI Tract (includes contents) [8]: 38.4 ± 16.1 % dose | % Dose Recovered, Total Recovered [8]: 97.1 ± 15.2 % dose | % Dose Recovered, VOCs [8]: 1.51 ± 0.210 % dose | percent radioactivity remaining in all tissues, excluding GI tract [8]: ~32% | % Dose Recovered, CO2 [9]: 13 % dose and 13.2 ± 1.80 % dose | % Dose Recovered, Urine [9]: 43 % dose and 43.4 ± 11.5 % dose | % Dose Recovered, CO2 [10]: 21.0 ± 2.20 % dose | % Dose Recovered, Feces [10]: 2.24 ± 1.31 % dose | % Dose Recovered, Tissues and GI Tract (includes contents) [10]: 19.0 ± 3.70 % dose | % Dose Recovered, Total Recovered [10]: 97.2 ± 6.40 % dose | % Dose Recovered, Urine [10]: 53.8 ± 3.90 % dose | % Dose Recovered, VOCs [10]: 1.08 ± 0.190 % dose | total administered dose recovered in tissues [10]: 16% | radioactivity in feces and VOCs (female B6C3F1 mice, gavage, across all dose groups): < 2% | % Dose Recovered, CO2 [11]: 17.8 ± 1.10 % dose | % Dose Recovered, Feces [11]: 13.7 ± 14.9 % dose | % Dose Recovered, Tissues and GI Tract (includes contents) [11]: 31.8 ± 1.50 % dose | % Dose Recovered, Total Recovered [11]: 92.1 ± 13.6 % dose | % Dose Recovered, Urine [11]: 27.1 ± 20.0 % dose | % Dose Recovered, VOCs [11]: 1.75 ± 0.319 % dose | excretion in urine (mice, gavage, range over groups): 16–43% | excreted as exhaled CO2 (mice, range over groups): 13–22% | total percentage of administered dose recovered (mouse studies, range over groups): 82–99% | mean serum choline level [3]: ~23 ng/mL
